In patent publication US20130096107A1, “USE OF AMINODIHYDROTHIAZINES FOR THE TREATMENT OR PREVENTION OF DIABETES” (Hoffmann-La Roche Inc., priority 2009, published 2013):
pIC50: −log10 of the molar value.

Molecular target: T1, BACE2 (Homo sapiens, UniProt Q9Y5Z0)
T1 construct: BACE2 enzyme ectodomain (derived from plasmid “pET17b-T7-hu proBACE2”); T7 tag; made in house; a pET17b plasmid implies E. coli (own knowledge)
T1 sequence (Q9Y5Z0 63-473 limits assumed): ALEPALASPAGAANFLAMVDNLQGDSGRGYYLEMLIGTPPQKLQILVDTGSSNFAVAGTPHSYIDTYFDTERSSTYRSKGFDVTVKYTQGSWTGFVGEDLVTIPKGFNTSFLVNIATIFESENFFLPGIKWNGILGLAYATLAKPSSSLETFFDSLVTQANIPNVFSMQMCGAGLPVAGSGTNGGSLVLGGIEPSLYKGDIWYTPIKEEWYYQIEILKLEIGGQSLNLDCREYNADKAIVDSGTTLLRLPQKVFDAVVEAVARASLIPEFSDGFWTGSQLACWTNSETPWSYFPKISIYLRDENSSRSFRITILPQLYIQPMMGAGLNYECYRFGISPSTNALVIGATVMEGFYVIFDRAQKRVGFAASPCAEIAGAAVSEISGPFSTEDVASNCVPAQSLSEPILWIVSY
Assay: Immunofluorescence Resonance Energy Transfer (FRET) assay for BACE2 inhibition
Assay type: biochemical
Conditions: pH 4.5; 5 μM TMEM27-based FRET peptide substrate
Method: BACE2 enzyme ectodomain (derived from plasmid “pET17b-T7-hu proBACE2”) was prepared as described in Ostermann et al., “Crystal Structure of Human BACE2 in Complex with a Hydroxyethylamine Transition-state Inhibitor”, Journal of Molecular Biology 2006, 355, 249-261. The pro-enzyme was stored at 4° C. at a concentration of 70 μg/ml.
The FRET assay was performed essentially as described in Grüninger-Leitch et al., Journal of Biological Chemistry (2002) 277(7) 4687-93 (“Substrate and inhibitor profile of BACE (beta-secretase) and comparison with other mammalian aspartic proteases”). In summary, a peptide is designed that is cleaved by the protease. The peptide is labelled with dabcyl at the N terminus and Lucifer Yellow at the C-terminus, such that for an intact peptide the Lucifer Yellow fluorescence is quenched by the dabcyl. When the peptide is cut by BACE2, the quenching is removed and a fluorescent signal is generated.
The assay was performed as described in Grueninger et al. 2002 at pH 4.5 using a substrate concentration of 5 μM. A FRET peptide based on the TMEM27 sequence was devised. dabcyl—[…]—LucY.
The assay readout is the initial rate of change of fluorescence intensity giving a relative measure of BACE2 activity. Small values correspond to high inhibition and larger values to low inhibition. […] IC50 values were determined using these assay values generated for a range of inhibitor concentrations and the curve fitting software XLfit (IDBS) using the Sigmoidal Dose-Response Model.

`CC[C@@]1(c2cc(NC(=O)c3ccc(Cl)cn3)ccc2F)CCSC(N)=N1` [Example 2, 5-Chloro-pyridine-2-carboxylic acid [3-((S)-2-amino-4-ethyl-5,6-dihydro-4H-[1,3]thiazin-4-yl)-4-fluoro-phenyl]-amide] gave a pIC50 of 8.10.
`CC[C@@]1(c2cc(NC(=O)c3ccccn3)ccc2F)CCSC(N)=N1` [Example 3, Pyridine-2-carboxylic acid [3-((S)-2-amino-4-ethyl-5,6-dihydro-4H-[1,3]thiazin-4-yl)-4-fluoro-phenyl]-amide] gave a pIC50 of 5.99.
For `CC[C@@]1(c2cc(NC(=O)c3ccc(Cl)cc3)ccc2F)CCSC(N)=N1` [Example 4, N-[3-((S)-2-Amino-4-ethyl-5,6-dihydro-4H-[1,3]thiazin-4-yl)-4-fluoro-phenyl]-4-chloro-benzamide], the pIC50 was 5.57.
`CC[C@@]1(c2cc(NC(=O)c3cnc(Cl)cn3)ccc2F)CCSC(N)=N1` [Example 5, 5-Chloro-pyrazine-2-carboxylic acid [3-((S)-2-amino-4-ethyl-5,6-dihydro-4H-[1,3]thiazin-4-yl)-4-fluoro-phenyl]-amide] showed a pIC50 of 6.00.
For `CC[C@@]1(c2cc(NC(=O)c3ncc(Cl)cn3)ccc2F)CCSC(N)=N1` [Example 6, 5-Chloro-pyrimidine-2-carboxylic acid [3-((S)-2-amino-4-ethyl-5,6-dihydro-4H-[1,3]thiazin-4-yl)-4-fluoro-phenyl]-amide], the pIC50 was 6.36.
`CC[C@@]1(c2cc(NC(=O)c3ncccc3C(F)(F)F)ccc2F)CCSC(N)=N1` [Example 7, 3-Trifluoromethyl-pyridine-2-carboxylic acid [3-((S)-2-amino-4-ethyl-5,6-dihydro-4H-[1,3]thiazin-4-yl)-4-fluoro-phenyl]-amide] showed a pIC50 of 5.26.
With `CC[C@@]1(c2cc(NC(=O)c3ncccc3-c3ccccc3)ccc2F)CCSC(N)=N1` [Example 8, 3-Phenyl-pyridine-2-carboxylic acid [3-((S)-2-amino-4-ethyl-5,6-dihydro-4H-[1,3]thiazin-4-yl)-4-fluoro-phenyl]-amide] the pIC50 was 5.31.
`CC[C@@]1(c2cc(NC(=O)c3cc(Cl)ccn3)ccc2F)CCSC(N)=N1` [Example 9, 4-Chloro-pyridine-2-carboxylic acid [3-((S)-2-amino-4-ethyl-5,6-dihydro-4H-[1,3]thiazin-4-yl)-4-fluoro-phenyl]-amide] was tested, and the pIC50 was 4.39.
Molecule `CC[C@@]1(c2cc(NC(=O)c3cccc(C)n3)ccc2F)CCSC(N)=N1` [Example 10, 6-Methyl-pyridine-2-carboxylic acid [3-((S)-2-amino-4-ethyl-5,6-dihydro-4H-[1,3]thiazin-4-yl)-4-fluoro-phenyl]-amide] has a pIC50 of 4.29.
For `CC[C@@]1(c2cc(NC(=O)c3nc(Cl)ccc3Cl)ccc2F)CCSC(N)=N1` [Example 11, 3,6-Dichloro-pyridine-2-carboxylic acid [3-((S)-2-amino-4-ethyl-5,6-dihydro-4H-[1,3]thiazin-4-yl)-4-fluoro-phenyl]-amide], the pIC50 was 4.64.
With `CC[C@@]1(c2cc(NC(=O)c3nc(Cl)ccc3C(F)(F)F)ccc2F)CCSC(N)=N1` [Example 12, 6-Chloro-3-trifluoromethyl-pyridine-2-carboxylic acid [3-((S)-2-amino-4-ethyl-5,6-dihydro-4H-[1,3]thiazin-4-yl)-4-fluoro-phenyl]-amide] the pIC50 was 4.48.
In the case of `CC[C@@]1(c2cc(NC(=O)c3cc4ccccc4cn3)ccc2F)CCSC(N)=N1` [Example 13, Isoquinoline-3-carboxylic acid [3-((S)-2-amino-4-ethyl-5,6-dihydro-4H-[1,3]thiazin-4-yl)-4-fluoro-phenyl]-amide], the pIC50 was 5.04.
In the case of `CC[C@@]1(c2cc(NC(=O)c3nccc4ccsc34)ccc2F)CCSC(N)=N1` [Example 14, Thieno[2,3-c]pyridine-7-carboxylic acid [3-((S)-2-amino-4-ethyl-5,6-dihydro-4H-[1,3]thiazin-4-yl)-4-fluoro-phenyl]-amide], the pIC50 was 5.51.
For `CC[C@@]1(c2cc(NC(=O)c3cc4ccccc4s3)ccc2F)CCSC(N)=N1` [Example 15, Benzo[b]thiophene-2-carboxylic acid [3-((S)-2-amino-4-ethyl-5,6-dihydro-4H-[1,3]thiazin-4-yl)-4-fluoro-phenyl]-amide], the pIC50 was 6.04.
Work on `CC[C@@]1(c2cc(NC(=O)c3ccc(C)s3)ccc2F)CCSC(N)=N1` [Example 16, 5-Methyl-thiophene-2-carboxylic acid [3-((S)-2-amino-4-ethyl-5,6-dihydro-4H-[1,3]thiazin-4-yl)-4-fluoro-phenyl]-amide] yielded a pIC50 of 6.18.
With `CC[C@@]1(c2cc(NC(=O)c3ccn(C)n3)ccc2F)CCSC(N)=N1` [Example 17, 1-Methyl-1H-pyrazole-3-carboxylic acid [3-((S)-2-amino-4-ethyl-5,6-dihydro-4H-[1,3]thiazin-4-yl)-4-fluoro-phenyl]-amide] the pIC50 was 5.67.
Work on `CC[C@@]1(c2cc(NC(=O)c3coc(C)n3)ccc2F)CCSC(N)=N1` [Example 18, 2-Methyl-oxazole-4-carboxylic acid [3-((S)-2-amino-4-ethyl-5,6-dihydro-4H-[1,3]thiazin-4-yl)-4-fluoro-phenyl]-amide] yielded a pIC50 of 6.32.
Molecule `CC[C@@]1(c2cc(NC(=O)c3csc(C)n3)ccc2F)CCSC(N)=N1` [Example 19, 2-Methyl-thiazole-4-carboxylic acid [3-((S)-2-amino-4-ethyl-5,6-dihydro-4H-[1,3]thiazin-4-yl)-4-fluoro-phenyl]-amide] has a pIC50 of 4.47.
